From patent US20020147136A1, “Compounds for targeting endothelial cells, compositions containing the same and methods for their use” (priority 2000, published 2002)
One block for each molecule: values may come before it.

Tests used:
HAEC = assay: TKPPR-bead binding to endothelial cells under flow; assay type: cell-based, human; conditions: flow 1.91 mL/min, 37° C.
Method: Circular 40 mm diameter glass coverslips (Bioptechs, Cat No. 40-1313-0319) were first derivative by dipping in 3-aminopropyltriethoxysilane (Pierce, Cat No. 80370ZZ), 20% in acetone (HPLC grade, Sigma Aldrich Cat No. 27,072-5), rinsed in acetone, and air-dried. After autoclaving, the derivatized coverslips were placed into 60 mm round, sterile culture dishes, one coverslip per dish. Five mL of a Collagen I solution (Becton Dickinson, Cat No. 40236), 41.6 μg/mL in 20 mM acetic acid (adjusted to pH 6.7 with NaOH), was added to each coverslip-containing dish. After 15 min, 0.25 mL of 11.5 mg/mL bis(sulfosuccinimidyl) suberate (Pierce, Cat No. 21580ZZ) was added to each dish and mixed in by swirling. After a 105-minute incubation, the dishes were drained and 5 mL of sterile TBS (20 mM Tris-HCl, pH 7.5, 140 mM NaCl) was added to each dish. […]
Coverslips containing confluent HAEC were mounted into a Bioptechs FCS2 parallel plate flow cell mounted on an Olympus IMT-2 inverted microscope. […] Wall shear stress T, in dynes/cm^2, was calculated using the equation (Lawrence et al., Blood 75:227-237, 1990): [formula]
Bead binding of equal numbers of red fluorescent beads conjugated with TKPPR and green fluorescent beads conjugated with glycine was monitored after increasing lengths of perfusion and variable lengths of subsequent washing with the same solution lacking microspheres.

[1] = tested on: Human aortic endothelial cells (HAEC); assay: TKPPR-conjugated fluorescent bead binding to HAEC, static; assay type: cell-based
Method: Human aortic endothelial cells (HAEC) from Biowhittaker were grown as monolayers in EGM-MV medium from Biowhittaker according to the supplier's instructions.
Briefly, a frozen cryovial of cells (500,000 cells in about 1 mL) was thawed for 2-3 minutes in a 37° C. water bath and cells were seeded into a T-75 flask coated with collagen I (commercially available) containing 15 mL EGM-MV of medium pre-equilibrated with 5% CO2 atmosphere. Cells were incubated in a standard tissue culture incubator at 37° C. HAEC were subcultured for up to 3 additional passages, using the following protocol:
For binding studies and characterization, pelleted cells were diluted to a concentration of 16,560 cells per mL, and 0.5 mL was seeded into each well of an 8-well chamber slide (Collagen I-coated, Becton Dickinson) to generate a seeding density of 12,000 cells/cm^2. Cells seeded into chamber slides were used for assays after 7 to 10 days, and were not further propagated.
TKPPR (see preparation described in the Example 1) was attached to red fluorescent carboxylate-modified FluoSpheres™ (Molecular Probes), which are 2.0 μm microspheres provided at 3.9×10^9 particles/mL of distilled water. 1.0 mg TKPPR was combined with 0.5 mLof 50 mM MES buffer (2-[N-Morpholino]ethanesulfonic acid, (commercially available), pH 6.0 and 0.2 mL FluoSpheres (7.8×10^8 spheres) in a 1.5 mL Eppendorf snap top, polypropylene centrifuge tube and rotated for 30 min at room temperature (RT). Then 2.8 mg EDAC (1-ethyl-3-(3-dimethylaminopropyl)carbodiimide hydrochloride, (commercially available) in 0.025 mL MES was added and the tube was rotated for 2 h at RT. Following the addition of 0.005 mL 1 N NaOH and 5.7 mg glycine in 0.025 mL MES, the tube was rotated for 30 min more at RT. The beads were then washed by employing three cycles of centrifugation at 14,000 rpm (20,800× g) in an Eppendorf 5417R centrifuge for 15 min, discarding the resulting supernatant, and resuspending in D-PBS. Storage was at 4° C. in 0.4 mL DPBS containing 0.05% NaN3 (final bead concentration was about 1.95×10^9/mL).
Final bead concentration was 1.95×10^7/mL. […]
Bead binding and localization was assessed at 200× magnification using the same microscopy equipment as described above. […] Finally, the processed images were inverted into black on a white background using Scion Image software (version beta 3b) and the integrated density was measured with the whole field selected.
The incubation time was decreased to 15 min on an orbital shaker, and the washes (3) were carried out using D-PBS containing 0.1% Tween 20 (Sigma). […] TKPPR-bead binding was quantitated in three fields, the other bead types were quantitated in one field only. Bound beads were quantitated by manual counting.

NP-1/Fc = assay: Inhibition of 125I-VEGF165 binding to NP-1/Fc
Method: The ability of various compositions comprising TKPPR monomers or multimers to inhibit ^125I-VEGF binding to NP-1 was evaluated using NP-1/Fc. Competitive binding assays with microtiter plates coated with NP-1/Fc (R&D sytems) were performed using ^125I-VEGF165 as radioligand (Amersham Pharmacia Biotech Cat. No. IM274, Specific Activity: 1000-2500 Ci/mmol). […] Plates (Nunc MaxiSorp white opaque Microtiter plate [C-bottom, 437796]) were coated by incubating the wells with 75 µl of a solution containing 3 μlg/mL NP-1/Fc in D-PBS/0.1% NaAzide overnight at 4° C. after covering with sealing tape (Dynex, VWR Cat. No. 62402-931). […] All points were derived from triplicate wells, and for each set of replicates in NP-1/Fc-coated wells, a companion set in the absence of the receptor was included. For competitive binding, a series of unlabelled competitor concentrations were prepared in a 250 pM solution of ^1251-VEGF165 in assay buffer Solutions were added to 1.2 ml polypropylene tubes conforming to the microtiter format (Costar Cat. No. 29442-602), and transferred from these tubes to microtiter wells, without further dilution, using a multichannel pipettor. After addition of the appropriate solutions, microtiter plates were incubated at 4° C. for 2 hours. […] The plates were blotted dry and 25 μl deionized water and 100 μl scintillation fluid (Optiphase SuperMix, Wallac) were added to each well. Plates were agitated using a Plate Shaker (Hyperion, Cat. No. 4030-100F) for 3-5 minutes and were then counted using a Microplate Scintillation Counter (Wallac Microbeta Trilux) A set of serially diluted 125I-VEGF165 standard wells ranging from 200 to 0.04 pM were included with each experiment to aid in quantification of the amount of radiolabel bound.

KDR-Fc = target: T1, KDR-Fc (Homo sapiens, UniProt P35968); assay: Inhibition of 125I-VEGF165 binding to KDR-Fc; conditions: at the highest concentrations tested
T1 construct: purchased R&D Systems

Neuropilin-1/Fc = assay: Fluorescence polarization binding to NP-1/Fc; conditions: Oregon Green-labeled ligand 5-20 nM, 37° C., D-PBS pH 7.4; different experiments
Method: The ability of various compositions comprising TKPPR monomers or multimers to bind to NP-1/Fc and KDR-Fc was evaluated using FP. The binding studies of various Oregon Green (OG)-labeled compounds comprising TKPPR monomers or multimers and related compounds with Neuropilin-1/Fc, and KDR-Fc (both from R&D Systems), were carried out at 37° C. in D-PBS buffer (pH 7.4). FP values (mP) for each substrate was measured by titrating the ligand (5-20 nM) with receptor protein using a Jolley Research and Consulting FPM-1 fluorescence Polarization analyzer. In each of these experiments the observed polarization values were plotted against receptor concentration. The mP values for 100% binding of tracer labeled ligand to receptor protein was calculated using the software provided by the vendor.

[2] = tested on: Human Umbilical Vein Endothelial Cells (HUVECS)
Method: The ability of compositions comprising a TKPPR monomer and a TKPPR multimer to inhibit ^125I-VEGF binding to endothelial cells was evaluated using HUVECs.

T1 sequence (P35968 with tags, fused parts or gaps limits assumed): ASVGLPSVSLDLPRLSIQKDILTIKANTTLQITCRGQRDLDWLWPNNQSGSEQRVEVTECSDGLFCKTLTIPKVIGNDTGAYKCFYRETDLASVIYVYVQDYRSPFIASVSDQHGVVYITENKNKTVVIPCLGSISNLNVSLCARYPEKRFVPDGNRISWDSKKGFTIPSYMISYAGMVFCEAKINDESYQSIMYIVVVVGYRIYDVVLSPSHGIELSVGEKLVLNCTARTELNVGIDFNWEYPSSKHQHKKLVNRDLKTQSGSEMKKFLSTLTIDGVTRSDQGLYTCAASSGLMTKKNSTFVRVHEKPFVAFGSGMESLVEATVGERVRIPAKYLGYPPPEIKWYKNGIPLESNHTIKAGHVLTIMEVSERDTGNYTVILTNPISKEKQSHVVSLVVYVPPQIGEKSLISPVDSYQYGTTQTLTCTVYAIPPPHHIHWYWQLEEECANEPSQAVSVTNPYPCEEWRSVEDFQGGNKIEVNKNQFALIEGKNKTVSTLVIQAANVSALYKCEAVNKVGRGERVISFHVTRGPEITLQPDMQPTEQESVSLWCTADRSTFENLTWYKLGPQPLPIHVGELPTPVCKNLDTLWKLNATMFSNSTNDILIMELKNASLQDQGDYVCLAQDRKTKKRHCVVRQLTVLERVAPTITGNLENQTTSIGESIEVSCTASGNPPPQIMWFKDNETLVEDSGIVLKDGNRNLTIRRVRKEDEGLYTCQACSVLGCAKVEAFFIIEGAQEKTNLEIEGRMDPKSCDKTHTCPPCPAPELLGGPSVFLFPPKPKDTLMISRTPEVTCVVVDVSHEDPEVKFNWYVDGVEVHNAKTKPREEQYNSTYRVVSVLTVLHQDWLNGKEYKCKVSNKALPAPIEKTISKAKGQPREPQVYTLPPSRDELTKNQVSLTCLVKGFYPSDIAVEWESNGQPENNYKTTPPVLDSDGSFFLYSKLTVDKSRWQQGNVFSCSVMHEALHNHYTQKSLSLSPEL

Molecule: Glycine
Beads bound at 1.53 dynes/cm^2 (HAEC): 10

Molecule: GRGDSP
Integrated density of bound beads ([1]; Experiment 1, 1.95×10^7 beads/mL, 30 min, HAEC monolayer): 28.59 arbitrary units | Number of bound beads ([1]; Experiment 2, 4.9×10^6 beads/mL, 15 min, manual counting, TKPPR average of three fields, others one field): 2

fold more potent than the monomer (NP-1/Fc): 230 to 330 fold | IC50 (NP-1/Fc; 250 pM 125I-VEGF165, 4° C., 2 hours): 130 nM | inhibition of 125I-VEGF165 binding to KDR (KDR-Fc): none | Kd (Neuropilin-1/Fc): 25 to 50 nM
Molecule: C/C(=N\O)C(C)(C)NOCCNC(C)(C)/C(CCNC(=O)CCCCCC(=O)NCC(=O)N(CCC(=O)NCC(=O)N(CCC(=O)NCCOCCOCC(=O)N[C@H](C(=O)N[C@@H](CCCCN)C(=O)N1CCC[C@H]1C(=O)N1CCC[C@H]1C(=O)N[C@@H](CCCNC(=N)N)C(=O)O)[C@@H](C)O)CCC(=O)NCCOCCOCC(=O)N[C@H](C(=O)N[C@@H](CCCCN)C(=O)N1CCC[C@H]1C(=O)N1CCC[C@H]1C(=O)N[C@@H](CCCNC(=N)N)C(=O)O)[C@@H](C)O)CCC(=O)NCC(=O)N(CCC(=O)NCCOCCOCC(=O)N[C@H](C(=O)N[C@@H](CCCCN)C(=O)N1CCC[C@H]1C(=O)N1CCC[C@H]1C(=O)N[C@@H](CCCNC(=N)N)C(=O)O)[C@@H](C)O)CCC(=O)NCCOCCOCC(=O)N[C@H](C(=O)N[C@@H](CCCCN)C(=O)N1CCC[C@H]1C(=O)N1CCC[C@H]1C(=O)N[C@@H](CCCNC(=N)N)C(=O)O)[C@@H](C)O)=N/O [BRU-326]
IC50 [2]: 10000 nM
